Numbered stars: 1 amine (or outer) side, 2 acyl side, 3 side chain; on linkers, the order of the positions; unused ones are H or OH. Bridge positions count the residues as written; N and C are the ends. Square brackets hold non-standard residues; d marks the D form. Peptide text beside a SMILES is read from it. * marks the point of attachment. Trp(βS-Me,7-OMe) = COc1cccc2c([C@H](C)[C@H](N)C(=O)O)c[nH]c12; X21 = COc1cccc2c([C@H](C)[C@H](N[*:1])C(=O)[*:2])c(C)[nH]c12; X24 = O=C(O)c1ccc([C@@H](O)[C@H](N[*:1])C(=O)[*:2])cc1; X28 = NC(=O)c1ccc([C@H](O)[C@H](N[*:1])C(=O)[*:2])cc1; Trp(7-CN) = N#Cc1cccc2c(C[C@H](N)C(=O)O)c[nH]c12; Trp(7-Cl) = N[C@@H](Cc1c[nH]c2c(Cl)cccc12)C(=O)O; Phe(3-CONH2) = NC(=O)c1cccc(C[C@H](N)C(=O)O)c1; Phe(4-CONH2) = NC(=O)c1ccc(C[C@H](N)C(=O)O)cc1; Phe(4-COOH) = N[C@@H](Cc1ccc(C(=O)O)cc1)C(=O)O; Trp(7-aza) = N[C@@H](Cc1c[nH]c2ncccc12)C(=O)O; Ala(4-thiazolyl) = N[C@@H](Cc1cscn1)C(=O)O; Pip(5R-OH) = O=C(O)[C@@H]1CC[C@@H](O)CN1; X1 = O=C([C@@H]1CC[C@H](N[*:1])C1)[*:2]; Gly(Nα-CH2CH2CONH2) = NC(=O)CCNCC(=O)O; Pip(4-aza) = O=C(O)[C@@H]1CNCCN1; hPhe = N[C@@H](CCc1ccccc1)C(=O)O; 4Pal = N[C@@H](Cc1ccncc1)C(=O)O; NMeE = CN[C@@H](CCC(=O)O)C(=O)O; dHyp = O=C(O)[C@H]1C[C@H](O)CN1; Ahp(2) = CCCCC[C@H](N)C(=O)O; αMeS = C[C@](N)(CO)C(=O)O; Nle = CCCC[C@H](N)C(=O)O; Sar = CNCC(=O)O; X22 = C1CC1C*

In this test the target is T1, TNFα-induced NF-κB signal transduction pathway (TNFR1 signaling) in THP-1 cells (Homo sapiens, UniProt P19438).
T1 sequence (P19438 30-455): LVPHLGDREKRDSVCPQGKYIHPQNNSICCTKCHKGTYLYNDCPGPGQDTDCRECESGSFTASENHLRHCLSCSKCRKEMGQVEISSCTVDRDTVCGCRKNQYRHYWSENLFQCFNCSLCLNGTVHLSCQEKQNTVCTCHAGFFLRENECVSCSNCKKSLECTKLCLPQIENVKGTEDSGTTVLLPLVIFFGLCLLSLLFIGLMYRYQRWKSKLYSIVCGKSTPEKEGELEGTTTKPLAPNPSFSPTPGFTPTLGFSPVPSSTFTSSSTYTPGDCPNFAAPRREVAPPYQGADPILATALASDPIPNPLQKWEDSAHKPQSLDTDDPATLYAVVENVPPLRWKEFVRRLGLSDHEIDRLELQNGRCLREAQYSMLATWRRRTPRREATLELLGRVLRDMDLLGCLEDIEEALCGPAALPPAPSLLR
The experiment in a line: THP-1 Lucia NF-κB reporter cell assay, inhibition of TNFα-induced NF-κB signaling. To be noted: THP-1 NF-κB Lucia reporter cells, 10 ng/mL TNFα, 16-18 h, secreted luciferase; read-out: THP-1 IC50. It counts as cell-based. Put shortly: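 Read-out: secreted Lucia luciferase luminescence (QUANTI-Luc) from supernatant after 16-18 h, 37 °C, 10 ng/mL rhTNFα. Peptide pretreatment 1 h at 37 °C; 20,000 cells/well, selection antibiotics omitted. IC50 via 4-parameter logistic model against min/max controls.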
Broadly, the IC50 is the midpoint of a concentration-inhibition curve. On to `CCCC[C@@H]1NC(=O)CSC[C@@H](C(N)=O)NC(=O)[C@H]([C@@H](C)c2c[nH]c3c(OC)cccc23)NC(=O)CN(C)C(=O)[C@H](Cc2ccc(O)cc2)NC(=O)[C@H](Cc2ccc(C(=O)O)cc2)NC(=O)[C@](C)(CO)NC(=O)[C@H](Cc2c[nH]c3c(Cl)cccc23)NC(=O)[C@H](Cc2ccncc2)NC(=O)[C@H](CC(N)=O)NC(=O)[C@H](CCC(=O)O)N(C)C(=O)[C@H](Cc2c[nH]c3ncccc23)NC(=O)[C@H](Cc2cscn2)NC(=O)[C@H](Cc2ccncc2)NC1=O` [SEQ ID NO. 253] ({CH2CO}-[Nle][4Pal][Ala(4-thiazolyl)][Trp(7-aza)][NMeE]N[4Pal][Trp(7-Cl)][αMeS][Phe(4-COOH)]Y[Sar][Trp(βS-Me,7-OMe)]C-NH2; thioether N-14), for which the IC50 was determined as 4.4 nM.
The same measure for `CCCC[C@@H]1NC(=O)CSC[C@@H](C(N)=O)NC(=O)[C@H]([C@@H](C)c2c[nH]c3c(OC)cccc23)NC(=O)CN(C)C(=O)[C@H](Cc2ccc(O)cc2)NC(=O)[C@H](Cc2ccc(C(=O)O)cc2)NC(=O)[C@](C)(CO)NC(=O)[C@H](Cc2c[nH]c3c(Cl)cccc23)NC(=O)[C@H](Cc2ccncc2)NC(=O)[C@H](CC(N)=O)NC(=O)[C@H](CCC(=O)O)N(C)C(=O)[C@H](Cc2c[nH]c3ncccc23)NC(=O)[C@@H]2CNCCN2C(=O)[C@H](CCc2ccccc2)NC1=O` [SEQ ID NO. 172] ({CH2CO}-[Nle][hPhe][Pip(4-aza)][Trp(7-aza)][NMeE]N[4Pal][Trp(7-Cl)][αMeS][Phe(4-COOH)]Y[Sar][Trp(βS-Me,7-OMe)]C-NH2; thioether N-14): 3.9 nM; for `CCCC[C@@H]1NC(=O)[C@@H]2CC[C@@H](C2)NC(=O)[C@H]([C@@H](C)c2c(C)[nH]c3c(OC)cccc23)NC(=O)CN(C)C(=O)[C@H](Cc2ccc(C(=O)O)cc2)NC(=O)[C@H](Cc2ccc(C(N)=O)cc2)NC(=O)[C@](C)(CO)NC(=O)[C@H](Cc2c[nH]c3c(Cl)cccc23)NC(=O)[C@H](Cc2ccc(C(=O)O)cc2)NC(=O)[C@H](CC(N)=O)NC(=O)[C@H]2C[C@H](O)CN2C(=O)[C@H](Cc2c[nH]c3ccccc23)NC(=O)[C@@H]2CC[C@@H](O)CN2C(=O)[C@H](Cc2ccncc2)NC1=O` [SEQ ID NO. 106] (cyclo([4Pal][Pip(5R-OH)]W[dHyp]N[Phe(4-COOH)][Trp(7-Cl)][αMeS][Phe(4-CONH2)][Phe(4-COOH)][Sar][X21][X1][Nle])): 0.6 nM.
As for `CCCC[C@@H]1NC(=O)[C@@H]2CC[C@@H](C2)NC(=O)[C@H]([C@@H](C)c2c[nH]c3c(OC)cccc23)NC(=O)CN(C)C(=O)[C@H]([C@H](O)c2ccc(C(=O)O)cc2)NC(=O)[C@H]([C@@H](O)c2ccc(C(N)=O)cc2)NC(=O)[C@](C)(CO)NC(=O)[C@H](Cc2c[nH]c3c(C#N)cccc23)NC(=O)[C@H](Cc2ccncc2)NC(=O)[C@H](CC(N)=O)NC(=O)[C@H]2C[C@H](O)CN2C(=O)[C@H](Cc2c[nH]c3ccccc23)NC(=O)[C@@H]2CC[C@@H](O)CN2C(=O)[C@H](Cc2ccncc2)NC1=O` [SEQ ID NO. 155] (cyclo([4Pal][Trp(7-CN)][αMeS][X28][X24][Sar][Trp(βS-Me,7-OMe)][X1][Nle][4Pal][Pip(5R-OH)]W[dHyp]N)), the IC50 is 0.9 nM.
With `COc1cccc2c([C@H](C)[C@@H]3NC(=O)CN(C)C(=O)[C@H](Cc4ccc(C(=O)O)cc4)NC(=O)[C@H](Cc4ccc(C(N)=O)cc4)NC(=O)[C@](C)(CO)NC(=O)[C@H](Cc4c[nH]c5c(C#N)cccc45)NC(=O)[C@H](Cc4ccc(C(=O)O)cc4)NC(=O)[C@H](CC(N)=O)NC(=O)[C@H]4C[C@H](O)CN4C(=O)[C@H](Cc4c[nH]c5ncccc45)NC(=O)[C@@H]4CC[C@@H](O)CN4C(=O)[C@H](Cc4ccncc4)NC(=O)[C@H](COCC4CC4)NC(=O)[C@@H]4CC[C@@H](C4)NC3=O)c[nH]c12` [SEQ ID NO. 149] (cyclo([4Pal][Pip(5R-OH)][Trp(7-aza)][dHyp]N[Phe(4-COOH)][Trp(7-CN)][αMeS][Phe(4-CONH2)][Phe(4-COOH)][Sar][Trp(βS-Me,7-OMe)][X1]S(X22))) the figure was 1.3 nM.
As for `CCCCC[C@@H]1NC(=O)[C@@H]2CC[C@@H](C2)NC(=O)[C@H]([C@@H](C)c2c[nH]c3c(OC)cccc23)NC(=O)CN(C)C(=O)[C@H](Cc2cccc(C(N)=O)c2)NC(=O)[C@H](Cc2ccc(C(N)=O)cc2)NC(=O)[C@](C)(CO)NC(=O)[C@H](Cc2c[nH]c3c(C#N)cccc23)NC(=O)[C@H](Cc2ccc(C(=O)O)cc2)NC(=O)[C@H](CC(N)=O)NC(=O)CN(CCC(N)=O)C(=O)[C@H](Cc2c[nH]c3ccccc23)NC(=O)[C@@H]2CNCCN2C(=O)[C@H](Cc2ccncc2)NC1=O` [SEQ ID NO. 10] (cyclo([4Pal][Pip(4-aza)]W[Gly(Nα-CH2CH2CONH2)]N[Phe(4-COOH)][Trp(7-CN)][αMeS][Phe(4-CONH2)][Phe(3-CONH2)][Sar][Trp(βS-Me,7-OMe)][X1][Ahp(2)])), the IC50 was determined as 0.8 nM.

For the origin of these results see US20240287138A1, “CYCLIC PEPTIDES FOR INHIBITING TNF RECEPTOR 1 ACTIVITY” (Merck Sharp & Dohme LLC, priority 2023, published 2024).
